Test results published in ChEMBL document CHEMBL5260836, “Combating Autoimmune Diseases With Retinoic Acid Receptor-Related Orphan Receptor-γ (RORγ or RORc) Inhibitors: Hits and Misses” (J Med Chem, 2018).
pIC50: −log10 of the molar value. In brackets after ≈: the same amount, converted by molar mass. One block for each molecule: values may come before it.

Assays:
[1] = Inhibition of IL-17 production in human Th17 cells relative to control; format: functional
cells [2] = conditions: Homo sapiens, Th17
[3] = biological target: T1, Nuclear receptor ROR-gamma (Homo sapiens) (UniProt P51449); test: Inhibition of human RORgamma by TR-FRET assay relative to control
T1 sequence (whole entry): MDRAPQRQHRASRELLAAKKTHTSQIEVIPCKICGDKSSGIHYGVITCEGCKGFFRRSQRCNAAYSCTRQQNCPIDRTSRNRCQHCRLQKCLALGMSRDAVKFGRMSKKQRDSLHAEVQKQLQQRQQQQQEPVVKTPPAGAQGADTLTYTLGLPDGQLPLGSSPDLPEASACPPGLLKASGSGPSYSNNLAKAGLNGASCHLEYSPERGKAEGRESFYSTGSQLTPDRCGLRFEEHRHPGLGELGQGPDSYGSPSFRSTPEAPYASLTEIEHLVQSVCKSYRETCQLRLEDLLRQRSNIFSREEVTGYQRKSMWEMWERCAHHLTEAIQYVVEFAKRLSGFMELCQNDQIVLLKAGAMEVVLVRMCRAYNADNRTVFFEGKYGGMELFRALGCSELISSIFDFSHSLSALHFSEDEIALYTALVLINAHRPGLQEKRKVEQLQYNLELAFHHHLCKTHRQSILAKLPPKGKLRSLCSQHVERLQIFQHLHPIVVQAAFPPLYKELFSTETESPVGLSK

[4] = biological target: T2, Nuclear receptor ROR-gamma (Homo sapiens, UniProt P51449); test: Inhibition of GAL4-RORgammat LBD (unknown origin); format: cell-based, HEK293
T2 sequence (P51449 whole entry): T1 sequence (whole entry)

[5] = biological target: T2, Nuclear receptor ROR-gamma; test: Antagonist activity at RORgammat LBD (unknown origin) assessed as fluorescent polarization signal measured in presence of fluorescein-labeled LXR agonist T0901317 after 4 hrs by competitive binding assay
[6] = Inhibition of IL-17F production in human PBMC by ELISA; format: functional, cell-based
[7] = Inhibition of IL-22 production in human PBMC by ELISA; format: functional, cell-based
[8] = Inhibition of IL-17A production in human PBMC by ELISA; format: functional, cell-based
[9] = Inhibition of IL-21 production in human PBMC by ELISA; format: functional, cell-based
[10] = biological target: T2, Nuclear receptor ROR-gamma; test: Inhibition of human GAL4-fused RORgamma LBD transfected in HEK293T cell measured after 24 hrs by luciferase reporter assay; format: cell-based
[11] = biological target: T2, Nuclear receptor ROR-gamma; test: Inhibition of human RORgammat expressed in COS7 cells by luciferase assay; format: cell-based
cells [12] = conditions: Homo sapiens, PBMC
[13] = Half life in dog; format: ADME, Canis lupus familiaris; conditions: in vivo
Homo sapiens [14] = species: Homo sapiens; test: tissue or blood
Description: Inhibition of IL-17A secretion in healthy human whole blood

[15] = Unbound fraction in human plasma; format: ADME, cell-free
[16] = Oral bioavailability in dog; format: ADME, organism-based, Canis lupus familiaris; conditions: in vivo
[17] = Oral bioavailability in rat; format: ADME, organism-based; conditions: in vivo
cells [18] = conditions: Homo sapiens, PBMC; remark: listed apart in the source
Description: Inhibition of IL-17A secretion in human PBMC cells

Mus musculus [19] = species: Mus musculus; test: animal or person; conditions: po, read-out: INH
Description: Anti-inflammatory activity against mouse EAE model assessed as reduction in EAE score at 100 mg/kg, po relative to control

[20] = Solubility of the compound; format: physicochemical
[21] = Half life in rat; format: ADME; conditions: in vivo
Homo sapiens [22] = species: Homo sapiens; test: tissue or blood; remark: listed apart in the source
Description: Inhibition of IL-17A secretion in psoriatic human whole blood

[23] = biological target: T2, Nuclear receptor ROR-gamma; test: Inhibition of human GAL4-fused RORgammat LBD transfected in Escherichia coli BL21(DE3) cell measured after 16 hrs by HTRF assay
[24] = Inhibition of IL-17 production in human BAL cells isolated from COPD patients measured after 72 hrs by ELISA based assay; format: functional; conditions: Bronchoalveolar lavage cell
[25] = Inhibition of IL-17 production in human PBMC isolated from COPD patients measured after 72 hrs by ELISA based assay; format: functional, cell-based
Mus musculus [26] = test: Anti-arthritis activity against collagen-induced arthritis DBA/1Lacj mouse model assessed as arthritis clinical score at 30 mg/kg, po twice daily from day 21 to 35 relative to control; format: functional; conditions: 504 h
[27] = Inhibition of IL-17A production in human PBMC derived from rheumatoid arthritis; format: functional, cell-based
Mus musculus [28] = test: Anti-arthritis activity against collagen-induced arthritis DBA/1Lacj mouse model assessed as arthritis clinical score at 60 mg/kg, po twice daily from day 21 to 35 relative to control; format: functional; conditions: 504 h
Mus musculus [29] = test: Anti-arthritis activity against collagen-induced arthritis DBA/1Lacj mouse model assessed as arthritis clinical score at 10 mg/kg, po twice daily from day 21 to 35 relative to control; format: functional; conditions: 504 h
Homo sapiens [30] = species: Homo sapiens; test: Inhibition of IL-17 production in human whole blood measured after 72 hrs by ELISA; format: functional
[31] = Unbound fraction in rat blood; format: ADME, tissue-based
[32] = biological target: T2, Nuclear receptor ROR-gamma; test: Inverse agonist activity at His-tagged human RORgammat LBD assessed as inhibition of biotinylated RIP140 co-activator peptide binding incubated for 1 hr by TR-FRET assay
[33] = Unbound fraction in human blood; format: ADME, tissue-based
cells [34] = conditions: Homo sapiens, PBMC, 96 h
Description: Inhibition of IL17 production in human PBMC cells measured after 4 days by enzyme-linked immunosorbent assay

[35] = biological target: T2, Nuclear receptor ROR-gamma; test: Inverse agonist activity at human GAL4-RORgamma […] expressed in HEK293 cells measured after 24 hrs by ligand binding assay; format: cell-based
Mus musculus [36] = test: Anti-arthritis activity against glucose-6-phosphate isomerase-induced arthritis DBA/1 mouse model assessed as reduction in paw swelling clinical score at 1000 mg/kg, po; format: functional
[37] = Plasma clearance in rat; format: ADME

- pIC50 (cells [2]): 6.74
- Efficacy [3]: -69%
SMILES: O=C(Nc1ccc2c(c1)CN(S(=O)(=O)c1cccc(C(F)(F)F)c1)CCO2)c1c(F)cccc1Cl
- Efficacy [1]: -73%

- pIC50 [4]: > 7.00
SMILES: Cc1cc(C(F)(F)F)cc2c1cc(Cc1c(Cl)ccc(C(=O)N3CCN(C4COC4)CC3)c1Cl)n2C

- pIC50 [5]: 7.05
SMILES: C[C@H]1CN(Cc2cncc(NS(=O)(=O)c3c(Cl)cc(Cl)cc3Cl)c2)CCN1C(=O)C1CCCC1

- pIC50 [6]: > 5.00
- pIC50 [7]: > 5.00
- pIC50 [8]: > 5.00
- pIC50 [9]: > 5.00
SMILES: O=S(=O)(c1ccccc1)N1CCC(Cn2ccc3nc(-c4cn[nH]c4)ccc32)CC1

- pIC50 [6]: > 5.00
- pIC50 [7]: > 5.00
- pIC50 [8]: > 5.00
- pIC50 [9]: > 5.00
SMILES: O=S(=O)(c1ccc(Cl)cc1)N1CCC(Cn2ccc3cc(-c4cn[nH]c4)ccc32)CC1

- pIC50 [10]: 7.22
SMILES: CCS(=O)(=O)c1ccc(CNc2nc3c(C)nc(-c4c(C)ncnc4C4CC4)nc3n([C@@H](C)C3CC3)c2=O)nc1

- pIC50 [11]: 8.68
- pIC50 (cells [12]): 8.18
SMILES: CCS(=O)(=O)c1ccc(CC(=O)Nc2cc(Cl)c(C3(c4noc(-c5ccc(F)cc5)n4)CC3)c(Cl)c2)cc1

- half-life [13]: 15 h
- pIC50 (Homo sapiens [14]): 6.68
- fraction unbound [15]: 0.005
- bioavailability [16]: 66%
- bioavailability [17]: 64%
- pIC50 (cells [18]): 7.68
- solubility [20]: 17 µM (≈ 9.4 µg/mL)
- half-life [21]: 6 h
- pIC50 (Homo sapiens [22]): 6.60
SMILES: CCS(=O)(=O)c1ccc(CNC(=O)c2cnc3c(c2)CN(C[C@H]2CC[C@H](C(F)(F)F)CC2)[C@H]3C(C)C)nc1
- inhibition in vivo at 100 mg/kg (Mus musculus [19]): > 95%

- pIC50 [23]: 8.70
SMILES: O=C(O)c1ccc(-c2nn(C(=O)c3c(Cl)cccc3C(F)(F)F)c3cccnc23)c(F)c1

- pIC50 [24]: 6.46
- pIC50 [25]: 6.83
SMILES: CCn1c(C(C)(C)Oc2ccc(F)cc2F)nc2cc(NC(=O)Cc3ccc(S(=O)(=O)CC)cc3)ccc21

- pIC50 [27]: 8.30
SMILES: COc1nc2ccc([C@](O)(c3ccc(C)nc3C)c3cnnn3C)cc2c(Cl)c1Cc1ccc(C(F)(F)F)cc1
- inhibition in vivo at 30 mg/kg (Mus musculus [26]): 46%
- inhibition in vivo at 60 mg/kg (Mus musculus [28]): 78%
- inhibition in vivo at 10 mg/kg (Mus musculus [29]): 32%

- bioavailability [17]: 23%
- pIC50 (Homo sapiens [30]): 6.77
- fraction unbound [31]: 0.256
- pIC50 [32]: 7.89
- fraction unbound [33]: 0.312
SMILES: Cc1ncc(C(=O)Nc2cn3ccnc3c(CN3CCN(C(=O)C4CCCC4)[C@@H](C)C3)c2C)cn1

- pIC50 (cells [34]): 7.40
SMILES: O=C(O)c1ccc(-c2nn(C(=O)c3c(Cl)cccc3C(F)(F)F)c3ccccc23)cc1

- pIC50 [35]: < 5.00
SMILES: O=C(O)CC1CN(Cc2ccc(-c3ccc(C(O)(C(F)(F)F)C(F)(F)F)cc3)cc2)CCN1Cc1ccncc1 (stereo not drawn)

SMILES: CCS(=O)(=O)c1ccc(CNC(=O)c2cc3c(s2)C2(CCN([C@H](C)c4cnc(C(F)(F)F)nc4)CC2)O[C@@H](C)C3)nc1
- inhibition in vivo at 1000 mg/kg (Mus musculus [36]): 75%
- pIC50 (cells [18]): 7.70

- clearance [37]: 5 mL/min/kg
SMILES: O=C(O)c1ccc(-c2nn(C(=O)c3c(Cl)cccc3C3(C(F)(F)F)CC3)c3cccnc23)c(F)c1
